{"source": "patent US20200223826A1", "about": "“Glucose-6-Phosphate Dehydrogenase (G6PD)-Modulating Agents And Methods Of Treating G6PD Deficiency” (The Board of Trustees of the Leland Stanford Junior …, priority 2017, published 2020)", "key": {"[1]": {"molecular_target": "T1, Mediterranean (S188F) G6PD (Homo sapiens, UniProt P11413, S188F)", "T1 construct": "His (pET-28a) (N, cleaved yes); made in house; host or cells: E. coli C43 (DE3)", "T1 sequence (P11413 whole entry S188F)": "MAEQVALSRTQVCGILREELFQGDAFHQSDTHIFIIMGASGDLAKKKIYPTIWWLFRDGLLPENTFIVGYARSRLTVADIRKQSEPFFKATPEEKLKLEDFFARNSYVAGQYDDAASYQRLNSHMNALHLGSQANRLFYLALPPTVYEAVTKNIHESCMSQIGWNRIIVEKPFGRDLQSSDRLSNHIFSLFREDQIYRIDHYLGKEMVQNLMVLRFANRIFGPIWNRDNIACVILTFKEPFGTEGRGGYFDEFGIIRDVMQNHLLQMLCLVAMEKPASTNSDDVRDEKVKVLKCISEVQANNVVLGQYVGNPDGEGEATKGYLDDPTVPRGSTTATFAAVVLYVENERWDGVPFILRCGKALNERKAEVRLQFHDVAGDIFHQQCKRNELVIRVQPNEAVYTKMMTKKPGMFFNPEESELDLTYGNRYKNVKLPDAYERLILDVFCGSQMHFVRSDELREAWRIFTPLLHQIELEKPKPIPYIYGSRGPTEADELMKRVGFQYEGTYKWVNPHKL", "experiment": "G6PD variant enzyme activity", "assay_type": "biochemical", "protocol": "(§1) Enzyme activity was measured by monitoring NADPH production, which was coupled with diaphorase converting resazurin to fluorescent resorufin (excitation at 565 nm and emission at 590 nm); fluorescent signal was thus proportional to G6PD activity. Assays were performed at 25° C. and run for 5 minutes in buffer containing 50 mM Tris (pH 7.4), 0.5 mM EDTA, 3.3 mM MgCl2, 1 U/ml diaphorase, 0.1 mM resazurin. 10 ng of recombinant enzymes or 10 μg of cell lysates was used for the assay with 10 μM NADP^+ (Sigma) as cofactor and 100 μM G6P (Sigma) as substrate. Steady-state kinetic parameters were obtained by varying concentrations of NADP^+ (0-10 μM) with a constant concentration of G6P (100 μM) and similarly for G6P (0-100 μM) with a constant concentration of NADP^+ (10 μM) with 10 ng of recombinant enzymes. Data analysis was performed using GraphPad Prism software v.6 (GraphPad Software, La Jolla, Calif. USA). Kinetic parameters were obtained by fitting the data to the Michaelis-Menten equation."}, "Kaiping (R463H) G6PD": {"molecular_target": "T2, Kaiping (R463H) G6PD (Homo sapiens, UniProt P11413, R463H)", "T2 construct": "His (pET-28a) (N, cleaved yes); made in house; host or cells: E. coli C43 (DE3)", "T2 sequence (P11413 whole entry R463H)": "as the sequence (P11413 whole entry S188F) above, with F188S, R463H counted along it", "experiment": "G6PD variant enzyme activity", "assay_type": "biochemical", "protocol": "as §1"}, "A- (V68M, N126D) G6PD": {"molecular_target": "T3, A- (V68M, N126D) G6PD (Homo sapiens, UniProt P11413, N126D/V68M)", "T3 construct": "His (pET-28a) (N, cleaved yes); made in house; host or cells: E. coli C43 (DE3)", "T3 sequence (P11413 whole entry V68M/N126D)": "as the sequence (P11413 whole entry S188F) above, with V68M, N126D, F188S counted along it", "experiment": "G6PD variant enzyme activity", "assay_type": "biochemical", "protocol": "as §1"}, "[2]": {"molecular_target": "aldehyde dehydrogenase 2 (ALDH2) (Homo sapiens, UniProt P05091)", "sequence (P05091 18-517, species assumed)": "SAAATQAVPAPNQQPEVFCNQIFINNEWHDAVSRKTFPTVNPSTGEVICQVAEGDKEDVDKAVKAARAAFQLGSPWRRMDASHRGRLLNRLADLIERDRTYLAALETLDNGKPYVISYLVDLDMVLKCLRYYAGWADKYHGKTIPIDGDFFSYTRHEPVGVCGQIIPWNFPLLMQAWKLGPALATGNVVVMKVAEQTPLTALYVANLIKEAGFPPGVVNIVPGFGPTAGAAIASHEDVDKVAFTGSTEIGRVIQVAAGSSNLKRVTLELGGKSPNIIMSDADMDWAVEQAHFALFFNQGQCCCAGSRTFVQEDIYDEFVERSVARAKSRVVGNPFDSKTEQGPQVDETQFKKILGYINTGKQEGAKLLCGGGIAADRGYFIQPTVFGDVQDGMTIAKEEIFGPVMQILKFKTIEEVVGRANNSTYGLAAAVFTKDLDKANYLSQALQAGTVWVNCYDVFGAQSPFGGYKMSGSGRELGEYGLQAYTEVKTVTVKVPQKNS", "experiment": "Selectivity: dimerization or activity of other NAD/NADP+-dependent enzymes", "assay_type": "biochemical"}, "[3]": {"molecular_target": "T4, G6PD in lymphocyte lysates carrying the Canton variant (Homo sapiens, UniProt P11413, R459L)", "T4 construct": "host or cells: lymphocytes from a G6PD-deficient subject", "T4 sequence (P11413 2-515 R459L limits assumed)": "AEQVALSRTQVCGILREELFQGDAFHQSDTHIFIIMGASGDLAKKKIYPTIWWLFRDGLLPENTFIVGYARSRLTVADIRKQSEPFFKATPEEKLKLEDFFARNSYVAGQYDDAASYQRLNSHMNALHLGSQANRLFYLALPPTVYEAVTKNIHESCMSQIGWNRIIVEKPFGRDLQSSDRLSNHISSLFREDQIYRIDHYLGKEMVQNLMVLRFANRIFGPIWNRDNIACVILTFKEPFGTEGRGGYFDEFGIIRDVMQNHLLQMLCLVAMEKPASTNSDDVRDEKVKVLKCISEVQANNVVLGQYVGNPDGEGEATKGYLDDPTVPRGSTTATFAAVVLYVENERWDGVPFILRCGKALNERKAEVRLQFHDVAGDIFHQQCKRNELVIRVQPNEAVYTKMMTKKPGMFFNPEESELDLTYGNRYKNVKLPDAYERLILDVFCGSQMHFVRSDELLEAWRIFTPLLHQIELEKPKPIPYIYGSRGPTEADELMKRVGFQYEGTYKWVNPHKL", "experiment": "G6PD activity in lymphocyte lysates", "assay_type": "cell-based", "conditions": "in the presence of AG1", "protocol": "Lymphocytes derived from a normal subject (HG 00866) and a G6PD-deficient subject carrying Canton variant in G6PD (HG 02367) were purchased from Coriell Institute and cultured in RPMI 1640 supplemented with 15% fetal bovine serum (FBS), 100 U/ml penicillin, and 100 μg/ml streptomycin. An SH-SY5Y neuroblastoma cell line was cultured in Dulbecco's Modification of Eagle's Medium/Ham's F-12 50/50 Mix supplemented with 10% FBS, 100 U/ml penicillin, and 100 μg/ml streptomycin. A G6PD-deficient subject-derived fibroblast cell line carrying Mediterranean variant and normal fibroblast cell line as control were purchased from Coriell Institute (GM 01152) and ThermoFisher Scientific (C0135C), respectively, and cultured in minimum essential medium supplemented with 15% FBS, 100 U/ml penicillin, and 100 μg/ml streptomycin. All the cell lines were maintained at 37° C. in a humidified incubator with an atmosphere of 5% of CO2 and 95% air.\nEnzyme activity was measured by monitoring NADPH production, which was coupled with diaphorase converting resazurin to fluorescent resorufin (excitation at 565 nm and emission at 590 nm); fluorescent signal was thus proportional to G6PD activity. Assays were performed at 25° C. and run for 5 minutes in buffer containing 50 mM Tris (pH 7.4), 0.5 mM EDTA, 3.3 mM MgCl2, 1 U/ml diaphorase, 0.1 mM resazurin. […]"}, "g6pd crispant embryos": {"test_system": "g6pd crispant embryos", "experiment": "g6pd crispant zebrafish embryos", "assay_type": "in vivo", "conditions": "1 μM AG1", "protocol": "sgRNA against Exon 10 of g6pd was designed using CHOPCHOP and in vitro transcribed according to standard protocols. The gene-specific oligo sequence was: 5′-[…] CAAG-3′ (SEQ ID NO: //). sgRNA and Cas9 protein (NEB) were mixed and microinjected into one-cell-stage embryos. For each injected clutch, 10 individual embryos were isolated at 24 hpf for sequencing to confirm introduction of a CRISPR-mediated indel in exon 10.\nEmbryos were dechorinated with pronase at 24 hours post fertilization (hpf) and treated with 50 μg/ml of chloroquine and/or AG1 by directly adding the compounds to the well. For ROS measurements, embryos were incubated with compounds for 2 hours, and then the ROS detecting reagent (CM-H2DCFDA) was added at a final concentration of 500 ng/ml to the well for a total treatment time of 5 hours. One embryo was placed to each well of a black, opaque 96-well plate. The florescence was analyzed with excitation/emission at 485/525 nm. […] Total protein concentration in the supernatants (total lysate) was determined by Bradford method. […] 50 μg of the lysate was used to measure NADPH levels using a NADPH quantification kit (Biovision), according to the manufacturer's instructions."}, "[4]": {"test_system": "lymphocytes carrying the Canton variant", "experiment": "Glutathione (GSH) measurement in lymphocytes", "assay_type": "cell-based, human", "conditions": "treatment with AG1 for 24 hours", "protocol": "Total glutathione level was measured using a Total Glutathione Quantification Kit (Dojindo), according to the manufacturer's instructions. The assay utilized DTNB (5,5′-dithio-bis-(2-nitrobenzoic acid)) that reacts with glutathione to produce 5-mercapto-2-nitrobenzoic acid, a yellow colored product. Cells were subjected to serum starvation (50-75%) for 48 hours to induce oxidative stress and treated with the compound for 24 hours before measurement. The absorbance was read at 412 nm."}, "SH-SY5Y cells": {"test_system": "SH-SY5Y cells", "experiment": "Cell viability assay, SH-SY5Y cells, with and without G6PD siRNA knockdown", "assay_type": "cell-based, human", "protocol": "Cell viability was measured using a Cell-Counting Kit-8 (CCK-8, Dojindo), utilizing WST-8 [2-(2-methoxy-4-nitrophenyl)-3-(4-nitrophenyl)-5-(2,4-disulfophenyl)-2H-tetrazolium monosodium salt, according to the manufacturer's instructions. Cells were subjected to serum starvation for 48 hours before measurement. Cells in 100 μL of medium per well were treated with 10 μL of CCK-8 solution and incubated for 2 hours at 37° C. The absorbance was read at 450 nm. Viability of lymphocytes was measured by staining with a 0.4% solution of trypan blue in buffered isotonic salt solution (pH 7.2). The viability was calculated as the number of viable cells (non-stained by the dye) divided by the total number of cells within the grids on the hemacytometer. Cells were treated with 1 μM of the compound 24 hours before the measurement.\nEndogenous G6PD was knocked down in each cell line as follows; 2 pmol of siRNA G6PD (Santa Cruz Biotechnology) and 0.5 μg lipofectamine (Invitrogen) were diluted in 10 μL of Opti-MEM medium respectively and incubated for 5 minutes. The diluted siRNA was combined with diluted lipofectamine, which was followed by additional incubation for 20 minutes prior to the addition to cells in a 96-well plate."}}, "data": [{"smiles": "SCCNCCc1c[nH]c2ccccc12", "note": "[AG1, 2-[2-(1H-indol-3-yl)ethylamino]ethanethiol]", "values": [{"measurement": "activation of variant", "setting": "[1]", "value": "up to 2 fold"}, {"measurement": "activation of variant", "setting": "Kaiping (R463H) G6PD", "value": "up to 2 fold"}, {"measurement": "activation of variant", "setting": "A- (V68M, N126D) G6PD", "value": "up to 2 fold"}, {"measurement": "effect on dimerization or activity", "setting": "[2]", "value": "no effect"}, {"measurement": "enhancement of enzymatic activity in lymphocyte lysates", "setting": "[3]", "value": 78, "unit": "%"}, {"measurement": "ROS, G6PD activity, NADPH level, pericardial edema", "setting": "g6pd crispant embryos", "value": "did not significantly affect"}, {"measurement": "level of GSH", "setting": "[4]", "value": "slightly increased"}, {"measurement": "increase of viability of SH-SY5Y cells", "setting": "SH-SY5Y cells; 1 μM of AG1", "value": 20, "unit": "%"}, {"measurement": "effect on viability of SH-SY5Y cells", "setting": "SH-SY5Y cells; G6PD knocked down by siRNA", "value": "no effect"}]}]}
